Test results published in publication PMC8039949, “A novel small-molecule PROTAC selectively promotes tau clearance to improve cognitive functions in Alzheimer-like models” (Theranostics, 2021).

What was measured:
HEK293-hTau cells = experiment: CCK-8 cell viability assay; assay type: cell-based, human; conditions: 0.01, 0.1, 1, 10, 20 and 100 μM, 24 h
Method: Cell viability was assessed using CCK-8 kit by following the manufacturer's instructions. The cells were seeded at a concentration of 5,000 cells per well in a 96-well plate and then treated with various concentrations of C004019 (0, 0.01, 0.1, 1, 10, 20 and 100 μM) for 24 h. After the treatments, the culture medium was removed, and 10 μL of CCK-8 in 90 μL of medium was added. After incubating for 30 min at 37 °C, the absorbance was measured at 450 nm using a microplate reader (BioTek, 250058).

tau with Vhl (E3 ligase) = target: T1, tau with Vhl (E3 ligase) (Homo sapiens, UniProt P10636+P40337); experiment: Co-immunoprecipitation of tau with Vhl and tau ubiquitination in HEK293-hTau cells; assay type: cell-based; conditions: 20 μM for 6 h
T1 construct: expressed in transfected cells; host or cells: HEK293-hTau (tau stably expressed; VHL endogenous)
Method: Cell lysates were centrifuged at 12,000 g for 20 min at 4 °C and the supernatant were incubated with protein G agarose beads (Millipore, 16-266), pre-washed with cold PBS for 1 h at 4 °C to remove non-specific proteins. After centrifuged (14,000 g) at 4 °C for 15 min, the supernatant was collected and protein concentration was measured by BCA assay. The supernatant was sequentially incubated with primary antibodies (2 μg/100 μg) overnight at 4 °C with rotating in the first day and protein G agarose beads (20 μL/100 μL) the next day. After spin (6,000 g) for 2 min at 4 °C, the pellets were collected, washed with precooled washing buffer for 3 times, resuspended in buffer (50 mM Tris-HCl, pH 6.8, 2% SDS, 10% glycerol), boiled for 10 min, and analyzed by Western blotting.

tau [1] = target: T2, tau (Mus musculus, UniProt P10637); experiment: Intracerebroventricular infusion in wild-type mice, brain tau by Western blotting; assay type: in vivo; conditions: 4 m-old wild-type mice, intracerebroventricular 5 μL, 200 μM
Method: For brain surgery and stereotaxic cerebroventricular drug delivery, the mice were placed in a stereotaxic apparatus and anesthetized with 2% isoflurane (RWD Life Science, R510-22) through a nose cone (300-500 mL/min, RWD Life Science, China, R500). The scalp was incised along the midline between the ears after the mice were sterilized with iodophors and 75% (vol/vol) alcohol. The holes were drilled stereotaxically in the skull at a cerebroventricular location (posterior 0.22 mm, lateral 0.9 mm, and ventral 2.3 mm relative to bregma). Using a microinjection system (Shenzhen RWD Life Technology Co., Ltd; RWD 69100), C004019 (5 μL, 200 μM) was infused at a rate of 0.5 μL/min. The needle was kept in place for 10 min before withdrawal. After the skin was sutured, the mice were placed on a heater for analepsia. For subcutaneous injection, C004019 was diluted with 20% HP-β-CD and injected under the skin on the back neck to reach a final concentration of 3 mg/kg (low dose) or 15 mg/kg (high dose).
The cells or hippocampal/cortex tissues were homogenized for ~ 30 min on ice in buffer [50 mM Tris·HCl pH 7.4-7.5, 100 mM NaCl, 1% (vol/vol) Triton X-100, 5 mM EDTA, 1:100 PMSF, 1:1,000 protease inhibitor cocktail containing 4-(2-Aminoethyl)-benzenesulfonyl fluoride hydrochloride, aprotinin, bestatin, leupeptin, E-64, and pepstatin A stored at 4 °C], and then centrifuged at 12,000 × g at 4 °C for 20 min. The supernatant was collected and the protein levels were analyzed using bicinchoninic acid (BCA, KF016, Sigma-Aldrich) by following the manufacturer's instruction (served as soluble protein). The pellet was further incubated with 8% (wt/vol) SDS buffer at 4 °C and then treated by ultrasonic wave to reach a complete resuspension. The suspension was spun (18,000 × g, 4 °C for 20 min) and the supernatant collected (served as insoluble fraction). The supernatant of different faction was respectively mixed with loading buffer (3:1, vol/vol) containing 200 mM Tris-HCl, pH 6.8, 8% SDS, 40% glycerol, and boiled for 10 min. […] Immunoreactive bands were quantitatively analyzed by Image J2x software.

tau [2] = target: T2, tau; experiment: Intragastrical gavage in wild-type mice, brain tau by Western blotting; assay type: in vivo; conditions: 4 m-old wild-type mice; intragastrical gavage 20 mg/kg; 48 h
Method: The cells or hippocampal/cortex tissues were homogenized for ~ 30 min on ice in buffer [50 mM Tris·HCl pH 7.4-7.5, 100 mM NaCl, 1% (vol/vol) Triton X-100, 5 mM EDTA, 1:100 PMSF, 1:1,000 protease inhibitor cocktail containing 4-(2-Aminoethyl)-benzenesulfonyl fluoride hydrochloride, aprotinin, bestatin, leupeptin, E-64, and pepstatin A stored at 4 °C], and then centrifuged at 12,000 × g at 4 °C for 20 min. The supernatant was collected and the protein levels were analyzed using bicinchoninic acid (BCA, KF016, Sigma-Aldrich) by following the manufacturer's instruction (served as soluble protein). The pellet was further incubated with 8% (wt/vol) SDS buffer at 4 °C and then treated by ultrasonic wave to reach a complete resuspension. The suspension was spun (18,000 × g, 4 °C for 20 min) and the supernatant collected (served as insoluble fraction). The supernatant of different faction was respectively mixed with loading buffer (3:1, vol/vol) containing 200 mM Tris-HCl, pH 6.8, 8% SDS, 40% glycerol, and boiled for 10 min. For Western blotting, the proteins were separated by 10% SDS-polyacrylamide gel via electrophoresis for about 2 h and transferred to nitrocellulose membranes ([…]) for 1 h. […] Immunoreactive bands were quantitatively analyzed by Image J2x software.

T2 sequence (P10637 114-430 isoform P10637-2 limits assumed): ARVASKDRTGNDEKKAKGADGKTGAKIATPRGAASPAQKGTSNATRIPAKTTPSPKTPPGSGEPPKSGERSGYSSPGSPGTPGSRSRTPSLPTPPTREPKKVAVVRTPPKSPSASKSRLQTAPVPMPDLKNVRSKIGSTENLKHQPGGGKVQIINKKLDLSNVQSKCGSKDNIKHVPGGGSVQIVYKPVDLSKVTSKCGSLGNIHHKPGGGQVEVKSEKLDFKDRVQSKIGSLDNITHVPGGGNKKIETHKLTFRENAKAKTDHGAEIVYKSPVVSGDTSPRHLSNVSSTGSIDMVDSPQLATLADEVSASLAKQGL
T1 sequence (P10636 1-441 isoform P10636-8): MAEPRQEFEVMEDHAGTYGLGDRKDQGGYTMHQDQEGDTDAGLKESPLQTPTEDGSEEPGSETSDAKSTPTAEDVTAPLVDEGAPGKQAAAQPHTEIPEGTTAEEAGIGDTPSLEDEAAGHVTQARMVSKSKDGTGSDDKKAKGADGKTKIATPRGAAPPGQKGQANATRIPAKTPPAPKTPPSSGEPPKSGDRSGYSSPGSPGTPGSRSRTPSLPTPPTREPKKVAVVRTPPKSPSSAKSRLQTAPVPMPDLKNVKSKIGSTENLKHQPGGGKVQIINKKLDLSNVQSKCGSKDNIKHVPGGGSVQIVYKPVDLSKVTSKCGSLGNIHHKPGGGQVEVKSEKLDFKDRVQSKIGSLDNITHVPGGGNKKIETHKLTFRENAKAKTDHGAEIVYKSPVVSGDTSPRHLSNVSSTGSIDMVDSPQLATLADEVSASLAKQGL
T1 sequence (P40337 whole entry): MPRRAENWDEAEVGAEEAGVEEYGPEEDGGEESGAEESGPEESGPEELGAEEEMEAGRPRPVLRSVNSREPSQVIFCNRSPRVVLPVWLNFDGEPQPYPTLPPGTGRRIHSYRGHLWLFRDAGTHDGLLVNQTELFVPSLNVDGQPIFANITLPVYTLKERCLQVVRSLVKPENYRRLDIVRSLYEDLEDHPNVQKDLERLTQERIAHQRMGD
T1 sequence (Q15369 whole entry partner): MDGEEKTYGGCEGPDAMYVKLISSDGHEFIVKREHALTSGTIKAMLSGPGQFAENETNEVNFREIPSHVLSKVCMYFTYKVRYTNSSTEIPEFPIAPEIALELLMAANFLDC
T1 sequence (Q15370 whole entry partner): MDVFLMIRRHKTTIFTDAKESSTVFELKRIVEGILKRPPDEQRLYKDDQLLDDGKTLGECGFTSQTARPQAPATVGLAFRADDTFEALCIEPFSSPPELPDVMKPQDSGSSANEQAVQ
T1 sequence (Q13617 whole entry partner): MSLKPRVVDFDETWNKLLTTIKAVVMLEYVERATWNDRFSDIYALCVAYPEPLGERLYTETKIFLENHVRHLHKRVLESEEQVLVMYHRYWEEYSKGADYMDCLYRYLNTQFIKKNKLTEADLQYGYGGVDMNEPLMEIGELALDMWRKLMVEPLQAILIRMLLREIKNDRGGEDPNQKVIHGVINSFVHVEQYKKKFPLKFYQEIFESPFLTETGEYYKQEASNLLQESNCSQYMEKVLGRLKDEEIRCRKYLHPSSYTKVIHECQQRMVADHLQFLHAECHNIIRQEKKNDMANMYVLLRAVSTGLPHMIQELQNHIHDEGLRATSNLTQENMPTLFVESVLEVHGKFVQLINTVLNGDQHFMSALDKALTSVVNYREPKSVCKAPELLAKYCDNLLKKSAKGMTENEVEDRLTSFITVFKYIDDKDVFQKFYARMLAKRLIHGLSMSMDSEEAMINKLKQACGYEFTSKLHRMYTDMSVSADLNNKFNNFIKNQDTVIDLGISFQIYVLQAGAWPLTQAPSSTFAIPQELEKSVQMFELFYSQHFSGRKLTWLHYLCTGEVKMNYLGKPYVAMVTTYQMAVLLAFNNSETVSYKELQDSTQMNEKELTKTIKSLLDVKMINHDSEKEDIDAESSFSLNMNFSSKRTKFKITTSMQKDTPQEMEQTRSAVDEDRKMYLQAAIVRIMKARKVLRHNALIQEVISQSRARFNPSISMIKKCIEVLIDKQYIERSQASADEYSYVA
T1 sequence (P62877 whole entry partner): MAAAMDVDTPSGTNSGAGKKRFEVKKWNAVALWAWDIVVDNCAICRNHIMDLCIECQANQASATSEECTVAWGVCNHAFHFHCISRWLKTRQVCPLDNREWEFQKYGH

## CC(=O)N1CCCN(c2nc(NCCc3cccs3)nc(N(C)CC(=O)NCCOCCOCCOCC(=O)N[C@H](C(=O)N3C[C@H](O)C[C@H]3C(=O)NCc3ccc(-c4scnc4C)cc3)C(C)(C)C)n2)CC1 [C004019]
HEK293-hTau cells
  cell viability (CCK8 assay): did not induce any significant change in cell viability
Tau with Vhl (E3 ligase)
  ubiquitination level of tau: significantly increased the ubiquitination level of tau
Tau [1]; 24 h
  hippocampal tau level: most remarkable hippocampal tau reduction
Tau [1]; 24 h and 48 h
  brain cortex tau level: significant reduction of tau was only detected at 48 h but not 24 h
Tau [1]; 48 h
  hippocampal tau level: still very significant
Tau [2]
  tau level in hippocampus and cortex: no significant tau reduction was detected
